In ChEMBL document CHEMBL5465560, “Selectivity Literature for EUbOPEN Chemogenomic Library” (2024):

Experiments:
[1] = system: Epidermal growth factor receptor (Homo sapiens), P00533 [UNDEFINED MUTATION]; assay: Selectivity interaction (KinomeScan (DiscoverX)) EUB0000666a EGFR; details: at 10 µM
[2] = target: Serine/threonine-protein kinase SIK2 (Homo sapiens) (UniProt Q9H0K1); assay: Selectivity interaction (KinomeScan (DiscoverX)) EUB0000229b SIK2; details: at 10 µM
[3] = target: T1, Serine/threonine-protein kinase 17B (Homo sapiens) (UniProt O94768); details: at 10 µM
T1 sequence (whole entry): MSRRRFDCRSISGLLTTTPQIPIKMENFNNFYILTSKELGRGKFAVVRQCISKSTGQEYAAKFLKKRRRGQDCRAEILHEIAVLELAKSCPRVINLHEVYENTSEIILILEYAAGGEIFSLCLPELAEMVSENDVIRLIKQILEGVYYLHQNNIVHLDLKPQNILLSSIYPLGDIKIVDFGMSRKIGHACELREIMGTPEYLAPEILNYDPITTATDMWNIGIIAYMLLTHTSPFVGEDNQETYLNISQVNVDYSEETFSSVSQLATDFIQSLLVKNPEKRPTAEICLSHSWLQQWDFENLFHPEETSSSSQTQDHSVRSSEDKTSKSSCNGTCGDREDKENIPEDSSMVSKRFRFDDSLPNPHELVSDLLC

[4] = target: Serine/threonine-protein kinase Chk2 (Homo sapiens) (UniProt O96017); assay: Selectivity interaction (ActivX KiNativ screen (kinase selectivity in THP-1 cell lysates)) EUB0000639a CHEK2; type: subcellular; details: lysate
Chain of Serine/threonine-protein kinase Chk2 (Homo sapiens) (O96017 whole entry): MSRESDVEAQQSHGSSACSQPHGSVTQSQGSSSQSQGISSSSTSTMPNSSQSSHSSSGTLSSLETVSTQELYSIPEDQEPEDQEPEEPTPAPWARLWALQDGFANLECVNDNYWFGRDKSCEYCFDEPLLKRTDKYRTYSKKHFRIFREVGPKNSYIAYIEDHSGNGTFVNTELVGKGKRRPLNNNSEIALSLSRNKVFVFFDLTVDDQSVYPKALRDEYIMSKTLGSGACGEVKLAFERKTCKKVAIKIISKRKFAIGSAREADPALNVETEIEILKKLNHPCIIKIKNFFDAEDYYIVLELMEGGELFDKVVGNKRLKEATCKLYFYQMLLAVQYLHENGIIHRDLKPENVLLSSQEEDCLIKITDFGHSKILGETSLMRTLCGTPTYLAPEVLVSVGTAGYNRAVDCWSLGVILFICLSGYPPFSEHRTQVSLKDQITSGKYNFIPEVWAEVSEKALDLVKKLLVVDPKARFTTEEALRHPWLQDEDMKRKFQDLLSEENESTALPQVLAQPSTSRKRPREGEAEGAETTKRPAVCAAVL

[5] = target: Tyrosine-protein kinase Blk (Homo sapiens) (UniProt P51451); assay: Selectivity interaction (Ambit KINOMEscan and KiNATiv profiling in Jurkat cells) EUB0000090b BLK; type: cell-based; details: at 1 µM
Chain of Tyrosine-protein kinase Blk (Homo sapiens) (P51451 2-505 limits assumed): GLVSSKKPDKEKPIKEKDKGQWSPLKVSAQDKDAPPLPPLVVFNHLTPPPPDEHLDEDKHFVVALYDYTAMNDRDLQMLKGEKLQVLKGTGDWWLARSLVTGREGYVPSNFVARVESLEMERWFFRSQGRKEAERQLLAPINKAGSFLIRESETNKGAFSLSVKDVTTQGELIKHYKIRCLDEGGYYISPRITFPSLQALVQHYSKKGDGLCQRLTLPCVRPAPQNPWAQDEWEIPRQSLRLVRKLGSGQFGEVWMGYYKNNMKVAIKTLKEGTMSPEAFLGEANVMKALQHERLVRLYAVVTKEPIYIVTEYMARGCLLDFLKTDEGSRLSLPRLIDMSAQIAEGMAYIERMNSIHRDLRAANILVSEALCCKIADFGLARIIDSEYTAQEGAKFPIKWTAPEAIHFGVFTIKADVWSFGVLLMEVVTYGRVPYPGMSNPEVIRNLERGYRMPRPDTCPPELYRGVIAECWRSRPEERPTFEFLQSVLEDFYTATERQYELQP

[6] = target: Phosphatidylinositol 4,5-bisphosphate 3-kinase catalytic subunit beta isoform (Homo sapiens) (UniProt P42338); assay: Selectivity interaction (KinomeScan (DiscoverX)) EUB0000618a PIK3CB; details: at 10 µM
Chain of Phosphatidylinositol 4,5-bisphosphate 3-kinase catalytic subunit beta isoform (Homo sapiens) (P42338 whole entry, looked up, canonical isoform): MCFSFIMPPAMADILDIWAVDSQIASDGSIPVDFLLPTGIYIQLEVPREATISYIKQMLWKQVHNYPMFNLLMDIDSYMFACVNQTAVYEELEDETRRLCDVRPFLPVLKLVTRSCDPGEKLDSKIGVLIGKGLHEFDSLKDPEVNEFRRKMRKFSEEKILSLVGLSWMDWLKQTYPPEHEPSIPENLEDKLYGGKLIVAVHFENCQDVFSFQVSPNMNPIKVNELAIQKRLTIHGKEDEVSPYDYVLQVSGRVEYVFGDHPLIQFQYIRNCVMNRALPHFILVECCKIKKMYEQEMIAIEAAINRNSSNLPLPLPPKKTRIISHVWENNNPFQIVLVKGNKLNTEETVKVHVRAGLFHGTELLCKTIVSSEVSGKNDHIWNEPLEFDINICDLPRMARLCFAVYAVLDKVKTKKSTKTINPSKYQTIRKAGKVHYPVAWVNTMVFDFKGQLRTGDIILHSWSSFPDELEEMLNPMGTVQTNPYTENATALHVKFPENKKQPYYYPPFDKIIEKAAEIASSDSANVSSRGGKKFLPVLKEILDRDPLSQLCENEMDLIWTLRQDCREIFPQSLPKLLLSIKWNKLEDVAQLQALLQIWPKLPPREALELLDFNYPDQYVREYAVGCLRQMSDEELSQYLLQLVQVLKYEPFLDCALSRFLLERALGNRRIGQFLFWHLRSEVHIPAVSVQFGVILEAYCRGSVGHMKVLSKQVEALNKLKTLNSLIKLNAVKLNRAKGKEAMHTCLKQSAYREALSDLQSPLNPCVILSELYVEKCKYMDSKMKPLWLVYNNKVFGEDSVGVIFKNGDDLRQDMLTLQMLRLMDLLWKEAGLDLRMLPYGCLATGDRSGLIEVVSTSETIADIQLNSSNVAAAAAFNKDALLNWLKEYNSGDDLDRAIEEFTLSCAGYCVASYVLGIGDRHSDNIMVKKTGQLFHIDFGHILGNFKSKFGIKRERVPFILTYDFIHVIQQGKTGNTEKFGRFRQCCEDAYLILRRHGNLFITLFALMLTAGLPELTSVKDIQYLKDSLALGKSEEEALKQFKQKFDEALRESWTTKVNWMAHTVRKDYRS

[7] = target: T2, Mitogen-activated protein kinase kinase kinase 6 (Homo sapiens) (UniProt O95382); details: at 10 µM
T2 sequence (whole entry): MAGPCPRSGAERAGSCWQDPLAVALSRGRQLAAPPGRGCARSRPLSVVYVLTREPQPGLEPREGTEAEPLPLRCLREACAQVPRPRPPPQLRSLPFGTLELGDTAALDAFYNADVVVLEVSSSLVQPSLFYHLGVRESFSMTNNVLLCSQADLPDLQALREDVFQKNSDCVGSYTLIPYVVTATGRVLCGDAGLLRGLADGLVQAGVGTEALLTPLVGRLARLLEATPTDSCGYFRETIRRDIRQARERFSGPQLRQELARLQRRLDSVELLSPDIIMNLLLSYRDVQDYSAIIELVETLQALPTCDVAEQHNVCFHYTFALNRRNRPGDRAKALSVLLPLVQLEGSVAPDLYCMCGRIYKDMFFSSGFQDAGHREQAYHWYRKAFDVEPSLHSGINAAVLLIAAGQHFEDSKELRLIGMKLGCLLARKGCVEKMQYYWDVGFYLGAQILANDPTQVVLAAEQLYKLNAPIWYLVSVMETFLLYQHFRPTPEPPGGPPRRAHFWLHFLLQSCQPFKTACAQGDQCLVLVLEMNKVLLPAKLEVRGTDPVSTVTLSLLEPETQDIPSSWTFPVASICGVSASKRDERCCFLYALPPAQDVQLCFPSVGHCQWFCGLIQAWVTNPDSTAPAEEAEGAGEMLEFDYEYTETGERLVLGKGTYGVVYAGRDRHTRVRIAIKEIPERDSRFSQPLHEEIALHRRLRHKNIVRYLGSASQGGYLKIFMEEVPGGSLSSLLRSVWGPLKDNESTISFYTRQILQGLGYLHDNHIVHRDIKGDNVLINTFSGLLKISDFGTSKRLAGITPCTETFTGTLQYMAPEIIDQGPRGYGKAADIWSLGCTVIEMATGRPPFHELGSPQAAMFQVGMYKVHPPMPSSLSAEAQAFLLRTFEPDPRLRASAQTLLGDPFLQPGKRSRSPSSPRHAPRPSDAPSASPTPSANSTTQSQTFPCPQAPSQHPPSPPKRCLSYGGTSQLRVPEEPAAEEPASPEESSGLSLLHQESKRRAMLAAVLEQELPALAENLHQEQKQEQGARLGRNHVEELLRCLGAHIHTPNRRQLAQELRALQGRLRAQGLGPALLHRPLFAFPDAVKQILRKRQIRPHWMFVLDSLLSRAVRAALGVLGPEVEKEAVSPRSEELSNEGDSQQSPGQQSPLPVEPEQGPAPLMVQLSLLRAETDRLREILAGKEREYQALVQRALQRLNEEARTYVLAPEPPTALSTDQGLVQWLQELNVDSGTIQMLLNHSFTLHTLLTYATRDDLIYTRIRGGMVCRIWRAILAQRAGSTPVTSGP

[8] = target: Fibroblast growth factor receptor 1 (Homo sapiens, UniProt P11362); details: at 10 µM
[9] = target: Dual specificity protein kinase CLK2 (Homo sapiens, UniProt P49760); assay: Selectivity interaction (KinomeScan (DiscoverX)) EUB0001619a CLK2; details: at 1 µM
Chain of Dual specificity protein kinase CLK2 (P49760 whole entry, looked up): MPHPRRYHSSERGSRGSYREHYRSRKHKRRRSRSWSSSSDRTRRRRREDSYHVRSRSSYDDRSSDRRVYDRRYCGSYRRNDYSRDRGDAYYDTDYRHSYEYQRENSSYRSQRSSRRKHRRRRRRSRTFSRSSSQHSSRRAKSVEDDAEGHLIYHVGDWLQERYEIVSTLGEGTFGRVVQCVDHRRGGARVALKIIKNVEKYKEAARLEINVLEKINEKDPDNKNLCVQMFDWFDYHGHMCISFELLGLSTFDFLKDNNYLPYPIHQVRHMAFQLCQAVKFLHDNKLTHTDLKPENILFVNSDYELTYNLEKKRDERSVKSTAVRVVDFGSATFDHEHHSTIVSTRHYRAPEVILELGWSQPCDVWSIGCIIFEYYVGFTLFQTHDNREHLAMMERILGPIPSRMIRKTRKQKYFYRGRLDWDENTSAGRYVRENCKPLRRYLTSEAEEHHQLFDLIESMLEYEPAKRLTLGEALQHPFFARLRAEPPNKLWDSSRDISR

[10] = target: T3, cAMP-dependent protein kinase catalytic subunit PRKX (Homo sapiens) (UniProt P51817); assay: Selectivity interaction (KinomeScan (DiscoverX)) EUB0001619a PRKX; details: at 1 µM
T3 sequence (whole entry): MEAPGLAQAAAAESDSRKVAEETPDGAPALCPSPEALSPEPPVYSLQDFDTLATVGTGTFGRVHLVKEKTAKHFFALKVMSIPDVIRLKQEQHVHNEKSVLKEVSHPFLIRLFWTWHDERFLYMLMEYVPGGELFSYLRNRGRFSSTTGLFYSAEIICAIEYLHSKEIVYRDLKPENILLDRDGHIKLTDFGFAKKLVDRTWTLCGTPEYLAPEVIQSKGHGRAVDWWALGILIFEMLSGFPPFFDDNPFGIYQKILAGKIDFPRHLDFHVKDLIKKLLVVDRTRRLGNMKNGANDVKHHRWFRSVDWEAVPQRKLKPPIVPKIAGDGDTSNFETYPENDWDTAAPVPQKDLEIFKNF

[11] = target: Dual specificity testis-specific protein kinase 1 (Homo sapiens) (UniProt Q15569); assay: Selectivity interaction (KinomeScan (DiscoverX)) EUB0001619a TESK1; details: at 1 µM
Chain of Dual specificity testis-specific protein kinase 1 (Homo sapiens) (Q15569 whole entry, looked up): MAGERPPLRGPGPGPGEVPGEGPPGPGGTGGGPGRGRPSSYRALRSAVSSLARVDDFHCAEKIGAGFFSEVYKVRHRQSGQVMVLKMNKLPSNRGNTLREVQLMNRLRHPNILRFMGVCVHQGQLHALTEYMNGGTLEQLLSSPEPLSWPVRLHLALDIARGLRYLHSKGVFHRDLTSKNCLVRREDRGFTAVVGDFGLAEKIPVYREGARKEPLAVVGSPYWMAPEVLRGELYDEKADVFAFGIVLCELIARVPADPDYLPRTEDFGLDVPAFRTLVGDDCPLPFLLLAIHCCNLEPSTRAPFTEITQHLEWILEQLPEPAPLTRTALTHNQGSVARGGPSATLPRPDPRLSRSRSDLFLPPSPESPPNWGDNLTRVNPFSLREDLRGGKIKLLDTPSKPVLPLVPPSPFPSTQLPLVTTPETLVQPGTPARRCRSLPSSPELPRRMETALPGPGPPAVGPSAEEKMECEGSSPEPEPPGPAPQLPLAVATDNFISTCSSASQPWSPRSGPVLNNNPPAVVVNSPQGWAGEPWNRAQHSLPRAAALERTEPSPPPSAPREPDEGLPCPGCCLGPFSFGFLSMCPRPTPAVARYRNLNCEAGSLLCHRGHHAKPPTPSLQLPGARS

[12] = system: Epidermal growth factor receptor (Homo sapiens), P00533 [UNDEFINED MUTATION]; assay: Selectivity interaction (KinomeScan (DiscoverX)) EUB0000655a EGFR; details: at 10 µM
[13] = target: Mitogen-activated protein kinase kinase kinase 8 (Homo sapiens, UniProt P41279); assay: Selectivity interaction (Kinase panel (Z-LYTE Assay)) EUB0001632a MAP3K8; details: at 10 µM
Chain of Mitogen-activated protein kinase kinase kinase 8 (P41279 whole entry): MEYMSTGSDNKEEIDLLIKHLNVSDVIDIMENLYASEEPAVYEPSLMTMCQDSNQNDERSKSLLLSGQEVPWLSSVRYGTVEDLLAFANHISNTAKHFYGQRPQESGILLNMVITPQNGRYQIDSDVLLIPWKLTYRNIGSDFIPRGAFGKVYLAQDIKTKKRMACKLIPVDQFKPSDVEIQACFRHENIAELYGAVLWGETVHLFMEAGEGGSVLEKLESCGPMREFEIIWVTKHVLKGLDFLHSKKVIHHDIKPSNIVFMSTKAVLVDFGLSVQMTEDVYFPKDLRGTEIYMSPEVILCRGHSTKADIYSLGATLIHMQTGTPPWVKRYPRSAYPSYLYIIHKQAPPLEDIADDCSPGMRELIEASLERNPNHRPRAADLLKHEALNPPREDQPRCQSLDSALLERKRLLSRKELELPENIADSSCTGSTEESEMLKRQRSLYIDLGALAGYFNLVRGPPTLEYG

Chain of Epidermal growth factor receptor (Homo sapiens), P00533 [UNDEFINED MUTATION] (P00533 whole entry, looked up, change not shown): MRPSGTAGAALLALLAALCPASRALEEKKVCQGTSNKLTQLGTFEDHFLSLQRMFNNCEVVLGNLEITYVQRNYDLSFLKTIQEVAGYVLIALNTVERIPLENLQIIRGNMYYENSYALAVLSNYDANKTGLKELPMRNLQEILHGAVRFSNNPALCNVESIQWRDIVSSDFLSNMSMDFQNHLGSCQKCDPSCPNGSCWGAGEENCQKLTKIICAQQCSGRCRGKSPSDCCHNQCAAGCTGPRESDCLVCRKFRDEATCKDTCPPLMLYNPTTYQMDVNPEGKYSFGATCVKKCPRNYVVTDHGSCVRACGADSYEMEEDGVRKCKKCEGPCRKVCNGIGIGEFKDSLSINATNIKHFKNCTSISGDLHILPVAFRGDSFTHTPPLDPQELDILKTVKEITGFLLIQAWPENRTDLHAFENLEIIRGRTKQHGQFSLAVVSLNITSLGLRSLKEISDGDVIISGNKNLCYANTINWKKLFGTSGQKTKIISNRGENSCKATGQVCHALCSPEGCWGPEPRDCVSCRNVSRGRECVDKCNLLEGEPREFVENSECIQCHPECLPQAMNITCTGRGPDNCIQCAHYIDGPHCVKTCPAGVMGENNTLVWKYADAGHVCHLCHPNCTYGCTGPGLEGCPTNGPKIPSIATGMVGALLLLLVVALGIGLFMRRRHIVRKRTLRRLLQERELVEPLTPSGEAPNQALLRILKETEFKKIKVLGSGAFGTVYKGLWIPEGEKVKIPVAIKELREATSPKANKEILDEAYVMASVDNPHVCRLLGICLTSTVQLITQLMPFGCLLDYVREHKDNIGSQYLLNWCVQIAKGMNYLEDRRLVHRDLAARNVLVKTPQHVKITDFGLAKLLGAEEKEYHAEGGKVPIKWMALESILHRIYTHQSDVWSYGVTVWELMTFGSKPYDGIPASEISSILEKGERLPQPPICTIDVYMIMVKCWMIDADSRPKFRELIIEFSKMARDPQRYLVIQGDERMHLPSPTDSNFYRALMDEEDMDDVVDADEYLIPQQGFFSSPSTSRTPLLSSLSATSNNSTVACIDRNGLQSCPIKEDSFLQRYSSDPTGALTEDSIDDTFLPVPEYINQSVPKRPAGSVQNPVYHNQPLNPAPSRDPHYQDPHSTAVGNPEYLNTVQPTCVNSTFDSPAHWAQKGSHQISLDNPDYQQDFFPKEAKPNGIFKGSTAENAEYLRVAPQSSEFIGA

O=C(NOC[C@H](O)CO)c1ccc(F)c(F)c1Nc1ccc(I)cc1F
% of control [1]: 51%

COc1cc(N(C)c2ccnc3ccc(C(F)(F)F)cc23)cc(OC)c1OC
% binding [2]: 98%

CCN(CC)CCCCNc1ncc2cc(-c3cc(OC)cc(OC)c3)c(NC(=O)NC(C)(C)C)nc2n1
% of control [3]: 100%

CC[C@@H]1[C@H](F)C(=O)N[C@@H]1COc1nccc2cc(C(N)=O)c(OC)cc12 [ZIMLOVISERTIB]
% of inhibition ([4]; at 0.01 µM): 4.5%
% of inhibition ([4]; at 0.04 µM): 8.5%
% of inhibition ([4]; at 0.2 µM): 3.8%
% of inhibition ([4]; at 1 µM): 30.1%
% of inhibition ([4]; at 5 µM): 58.9%

CN(C)C/C=C/C(=O)Nc1ccc(C(=O)N2CCCC(Nc3ncc(Cl)c(-c4c[nH]c5ccccc45)n3)C2)cc1 (configuration not stated)
% of control [5]: 84%

O[C@H]1CC[C@H](Nc2ncc3nc(Nc4c(F)cc(F)cc4F)n([C@H]4CCOC4)c3n2)CC1
% of control [6]: 100%

Cc1cc([C@@H](C)Nc2ccccc2C(=O)O)c2nc(N3CCOCC3)cc(=O)n2c1 [AZD-6482]
% of control [7]: 95%
% of control [8]: 89%

N#Cc1cccc(-c2c[nH]c3ncnc(N4CCOCC4)c23)c1
% of control [9]: 64%
% of control [10]: 100%
% of control [11]: 100%

CN(C)CCOc1ccc(-c2nc(-c3ccncc3)c(-c3ccc4c(c3)CC/C4=N\O)[nH]2)cc1
% of control [12]: 81%

Cn1cc(-n2cnc3c(NCc4nc5cc(Cl)c(Cl)cc5[nH]4)nc(N4CCOCC4)nc32)cn1
% of control [13]: 4.18%
